Experimental data from patent US5294605A, “Amphiphilic peptide compositions and analogues thereof” (The Scripps Research Institute, priority 1991, dated 1994).
Where two headings read alike, the source gives them in different places. Square brackets hold non-standard residues; d marks the D form. Ends that are not written are not given here. Met(O) = CS(=O)CC[C@H](N)C(=O)O

Experiments:
Assay type in all cases: cell-based
Pseudomonas aeruginosa [1] = conditions: for Min. Inhibitory Concentration P. Aeruginosa: LB medium
Method: (§1) For the following Examples 3-9, antimicrobial assays were carried out in 96-well tissue culture plates. Each well was incubated with a given microorganism (Escherichia coli, Staphylococcus epidermidis, or Pseudomonas aeruginosa) suspended in LB medium. Upon the addition of the parent peptide having the structural formula hereinabove described, or its substitution analogues, or of Peptide I (dissolved in 1 X PBS, pH 7.0) each well contained a final cell density of 1.0×10^6 colony forming units (CFU)/ml. The final peptide concentrations ranged from 1.5 μg/ml to greater than 100 μg/ml.
(§2) Addition of peptides to the wells was defined as time zero. At twenty hours, the plates were placed in a Titertek Multiskan apparatus and the O.D.620 determined. The plates as well as the initial innoculum were incubated at 37° C.
(§3) Five wells per plate contained media alone, while five others contained medium plus cells. These controls were used to eliminate the possibility of media contamination while providing a measure of uninhibited growth of the microorganisms.
(§4) The degree of peptide activity was determined by comparing the substitution analogues with uninhibited growth of the control cells over a twenty-hour period.
(§5) as hereinabove described and analogues thereof wherein a methionine sulfoxide residue was substituted for various amino acid residues of the parent peptide were prepared as hereinabove described in Example 1 and tested for minimum inhibitory concentration with respect to E. coli, P. aeruginosa, and S. epidermidis at a concentration given in μg/ml, and for percent hemolysis of human red blood cells as hereinabove described in Example 2. The minimum inhibitory concentration and percent hemolysis (at a concentration of 100 μg/ml) are listed below in Table I. As used herein, the heading "Amino Acid Residue Substituted" refers to the number of the amino acid residue in the peptide which is substituted with a desired amino acid residue. All other residues remain the same as that of the normal peptide sequence. The term "Minimum Inhibitory Concentration" (MIC) as used herein indicates the minimum concentration of peptide in μg/ml needed to achieve 100 percent effective growth inhibition of the organism.

Escherichia coli [2] = conditions: for Min. Inhibitory Concentration E. Coli: LB medium
Method: as §1, §2, §3, §4, §5

[3] = system: Staphylococcus epidermidis; test: Antimicrobial assay in 96-well plates, LB medium (Example 2), MIC; conditions: for Min. Inhibitory Concentration S. epidemidia: Table VI, methionine sulfoxide diastereomer fractions
Pseudomonas aeruginosa [4] = test: Antimicrobial assay for deletion analogues (Example 10), MIC; conditions: Table VII; 3.5×10^5 CFU/ml, 20 hours, LB medium
Method: (§6) For the deletion analogues of the parent peptide further described in Examples 11 and 12, antimicrobial assays were carried out in 96-well tissue culture plates. Each well was incubated with a given microorganism (Escherichia coli, Staphylococcus epidermidis, Pseudomonas aeruginosa, or Staphylococcus aureus) suspended in LB medium. Upon addition of the parent peptide or its deletion analogues (dissolved in 1×PBS<pH7.0), each well contained a final cell density of 1.3×10^5 colony forming units (CFU)/ml of E. coli, or 3.5×10^5 CFU/ml P.aeruginosa, or 3.9×10^5 CFU/ml S. Aureus or 3.0×10^5 CFU/ml S. epidermidis. The final peptide concentrations ranged from 1.5 μg/ml to greater than 100 μg/ml. Addition of peptide to the wells was defined as time zero. At twenty hours, the plates were placed in a Titertek Multiskan apparatus and the O.D. 620 determined. The plates as well as the initial innoculum were incubated at 37° C. Five wells per plate contained medium alone, whereas five others contained medium plus cells. These controls were used to eliminate the possibility of medium contamination, while providing a measure of uninhibited growth of the microorganisms. The degree of peptide activity was determined by comparing the deletion analogues with uninhibited growth of the control cells over a twenty-hour period. The effective growth inhibitation of the deletion analogues is listed in the examples and tables below.

Escherichia coli [5] = test: as above; conditions: Table VII; 1.3×10^5 CFU/ml, 20 hours, LB medium
Method: as §6

Staphylococcus aureus = test: as above; conditions: Table VII; 3.9×10^5 CFU/ml, 20 hours, LB medium
Method: as §6

[6] = system: Staphylococcus epidermidis; test: as above; conditions: Table VII; 3.0×10^5 CFU/ml, 20 hours, LB medium
Method: as §6

[7] = Table II, lysine substitutions, 20 hours
[8] = Table VI, methionine sulfoxide diastereomer fractions, 20 hours
[9] = Table IV, analogues substituted at residues 4 and 11, 20 hours

Substance | Minimum Inhibitory Concentration P. Aeruginosa (Pseudomonas aeruginosa [4]) [µg/mL] | Minimum Inhibitory Concentration E. coli (Escherichia coli [5]) [µg/mL] | Minimum Inhibitory Concentration S. aureus (Staphylococcus aureus) [µg/mL] | Minimum Inhibitory Concentration S. epidermidis [6] [µg/mL] | also measured
Ac-KKLLKKLLKKLKKLLKKL-NH2 [1 (SEQ ID NO: 23)] |  |  |  |  | Min. Inhibitory Concentration P. Aeruginosa (Pseudomonas aeruginosa [1]; [7]): 30 µg/mL; Min. Inhibitory Concentration E. Coli (Escherichia coli [2]; [7]): 5 µg/mL; Min. Inhibitory Concentration S. epidermidis [3, 7]: 25 µg/mL
Ac-LKLLKLLKKLKKLLKKL-NH2 [5 (X(SEQ ID NO: 49) --NH2)] | 32 | 8 | 64 to 128 | 2 | 
Ac-LKLKKLLKKLKKLLKKL-NH2 [3 (X(SEQ ID NO: 48) --NH2)] | 8 | 4 | 32 to 64 | 4 | 
Ac-LKLKKKLLKKLKKLLKKL-NH2 [4 (SEQ ID NO: 25)] |  |  |  |  | Min. Inhibitory Concentration P. Aeruginosa (Pseudomonas aeruginosa [1]; [7]): 30 µg/mL; Min. Inhibitory Concentration E. Coli (Escherichia coli [2]; [7]): 2.5 µg/mL; Min. Inhibitory Concentration S. epidermidis [3, 7]: 5 µg/mL
Ac-LLLKKLLKKLKKLLKKL-NH2 [2 (X(SEQ ID NO: 47) --NH2)] | 16 to 32 | 8 to 16 | 32 to 64 | 4 | 
7 (SEQ ID NO: 11) 70/30: residue 7 methionine sulfoxide analogue, fraction by proportion of L-methionine-L-/D-sulfoxide (assignment undetermined) (LKLLKK[Met(O)]LKKLKKLLKKL; also: sulfoxide L-/D- 70/30 mixture, assignment undetermined) |  |  |  |  | Min. Inhibitory Concentration P. Aeruginosa (Pseudomonas aeruginosa [1]; [8]): > 5 µg/mL; Min. Inhibitory Concentration E. Coli (Escherichia coli [2]; [8]): 10 µg/mL; Min. Inhibitory Concentration S. epidemidia ([3]; 20 hours): > 10 µg/mL
11 (SEQ ID NO: 15) 20/80: residue 11 methionine sulfoxide analogue, fraction by proportion of L-methionine-L-/D-sulfoxide (assignment undetermined) (LKLLKKLLKK[Met(O)]KKLLKKL; also: sulfoxide L-/D- 20/80 mixture, assignment undetermined) |  |  |  |  | Min. Inhibitory Concentration P. Aeruginosa (Pseudomonas aeruginosa [1]; [8]): 5 µg/mL; Min. Inhibitory Concentration E. Coli (Escherichia coli [2]; [8]): 10 µg/mL; Min. Inhibitory Concentration S. epidemidia ([3]; 20 hours): 2.5 µg/mL
Ac-LKLLKKLKKLKKLLKKL-NH2 [7 (X(SEQ ID NO: 50) --NH2)] | 4 to 8 | 4 | 64 | 2 | 
4 (SEQ ID NO: 8) 60/40: residue 4 methionine sulfoxide analogue, fraction by proportion of L-methionine-L-/D-sulfoxide (assignment undetermined) (LKL[Met(O)]KKLLKKLKKLLKKL; also: sulfoxide L-/D- 60/40 mixture, assignment undetermined) |  |  |  |  | Min. Inhibitory Concentration P. Aeruginosa (Pseudomonas aeruginosa [1]; [8]): 5 µg/mL; Min. Inhibitory Concentration E. Coli (Escherichia coli [2]; [8]): > 10 µg/mL; Min. Inhibitory Concentration S. epidemidia ([3]; 20 hours): 5 µg/mL
Ac-LKLLKKLLKKLKLLKKL-NH2 [12 (X(SEQ ID NO: 53) --NH2)] | 8 | 8 | 32 | 4 | 
Ac-LKLLKKLLKKLKKLKKL-NH2 [14 (X(SEQ ID NO: 54) --NH2)] | 8 | 8 | 32 | 2 | 
Ac-KLLKKLLKKLKKLLKKL-NH2 [1 (X(SEQ ID NO: 46) --NH2)] | 16 to 32 | 16 | 32 | 4 | 
Ac-LKLLKKLLKKKKLLKKL-NH2 [11 (X(SEQ ID NO: 52) --NH2)] | 8 | 64 | 256 | 2 | 
4 (SEQ ID NO: 8) 50/50: residue 4 methionine sulfoxide analogue, fraction by proportion of L-methionine-L-/D-sulfoxide (assignment undetermined) (LKL[Met(O)]KKLLKKLKKLLKKL; also: sulfoxide L-/D- 50/50 mixture, assignment undetermined) |  |  |  |  | Min. Inhibitory Concentration P. Aeruginosa (Pseudomonas aeruginosa [1]; [8]): 5 µg/mL; Min. Inhibitory Concentration E. Coli (Escherichia coli [2]; [8]): 10 µg/mL; Min. Inhibitory Concentration S. epidemidia ([3]; 20 hours): 5 µg/mL
Ac-LKKLKKLLKKLKKLLKKL-NH2 [3 (SEQ ID NO: 24)] |  |  |  |  | Min. Inhibitory Concentration P. Aeruginosa (Pseudomonas aeruginosa [1]; [7]): 30 µg/mL; Min. Inhibitory Concentration E. Coli (Escherichia coli [2]; [7]): 5 µg/mL; Min. Inhibitory Concentration S. epidermidis [3, 7]: 10 µg/mL
Ac-LKLLKKLLKKLKKLLKL-NH2 [16 (X(SEQ ID NO: 55) --NH2)] | 16 | 8 | 32 | 4 | 
Ac-LKLLKKLLKKLKKLLKK-NH2 [18 (X(SEQ ID NO: 56) --NH2)] | 8 | 16 | 32 | 2 | 
Ac-LLKLLKKLLKKLKK [Peptide I] |  |  |  |  | Minimum Inhibitory Concentration against P.aeruginosa (Pseudomonas aeruginosa [1]; 20 h): 5 µg/mL; Minimum Inhibitory Concentration against E.coli (Escherichia coli [2]; 20 h): 10 µg/mL
7 (SEQ ID NO: 11) 20/80: residue 7 methionine sulfoxide analogue, fraction by proportion of L-methionine-L-/D-sulfoxide (assignment undetermined) (LKLLKK[Met(O)]LKKLKKLLKKL; also: sulfoxide L-/D- 20/80 mixture, assignment undetermined) |  |  |  |  | Min. Inhibitory Concentration P. Aeruginosa (Pseudomonas aeruginosa [1]; [8]): > 5 µg/mL; Min. Inhibitory Concentration E. Coli (Escherichia coli [2]; [8]): 5 µg/mL; Min. Inhibitory Concentration S. epidemidia ([3]; 20 hours): > 10 µg/mL
Ac-LKLKKKLLKKMKKLLKKL-NH2 [Analogue 8] |  |  |  |  | Min. Inhibitory Concentration P. Aeruginosa (Pseudomonas aeruginosa [1]; [9]): 5 µg/mL; Min. Inhibitory Concentration E. Coli (Escherichia coli [2]; [9]): 5 µg/mL; Min. Inhibitory Concentration S. epidermidis [3, 9]: 5 µg/mL
Ac-LKLLKKLLKLKKLLKKL-NH2 [9 (X(SEQ ID NO: 51) --NH2)] | 16 | 8 | 64 | 4 | 
